Results as given in patent publication US6770635B1, “Method for medicating the inflammatory controlling system and adverse inflammatory reactions and for making compounds for treating the pathology of adverse inflammatory reactions” (Pharos Pharmaceuticals, priority 1995, dated 2004).

Tests used:
[1] = stability of BD2K1 in water (deuterium oxide), 500 MHz NMR; type: physicochemical; conditions: for After One Week (share of ingredient in the solution by NMR) / Initially % (share of ingredient in the solution by NMR): BD2K1 in deuterium oxide, room temperature about 27° C.
Protocol: A sample of BD2K1 made according to Example 1. Five mcg of the sample was dissolved in one ml of deuterium oxide and the solution was stored in a tightly capped screw capped tube maintained at room temperature which is about 27° C. Deuterium was used as the water source because it facilitates the NMR determinations of chemical configuration. The solution sample was scanned by 500 MHz NMR initially and after one week.

[2] = stabilizing effect of glucose added to BD2K1-deuterium oxide mixtures, NMR; type: physicochemical; conditions: for level at which di-β-glucosamine equilibrates: 20% or more glucose in the mixture, in water, first week; for percent of total composition in the stationary equilibrium: 95% BD2K1 sample in water without glucose, one week
Protocol: This experiment measures the stabilizing effect of glucose when added to the BD2K1 -deuterium oxide mixtures at room temperature. Various amounts of α-D-glucose were added to the similar starting mixtures in Example 3 and the NMRs were recorded to determine the percent changes of the total composition as a function of time.

[3] = storage of BD2K1 in a desiccated container; type: physicochemical; conditions: room temperature
[4] = general statements on stability at alkaline pH and in body fluids; type: physicochemical
[5] = system: mice immunologically sensitive to a specific water soluble chemical; experiment: Inflammatory Controlling System (ICS) assay; type: in vivo
Protocol: An example of BD2K1 being synthesized in another area than in the intestine is seen in a mouse study which was conducted involving the Inflammatory Controlling System (ICS). ICS assay is done in mice immunologically sensitive to a specific water soluble chemical. When these mice are challenged intravenously with a sublethal dose of the chemical, below the toxicity level for non-sensitive mice, they immediately respond with an adverse immune reaction. Result is an acute pancreatitis, shock and death. […] The assay involves glucose controls which are administrated intraperitoneally at three times. The first is early (i.e., 3 hours) before the antigen challenge. The second is one hour before the challenge and the third is at zero hour (i.e., when the challenge is done). […] However, for the case where glucose was injected at the zero hour and one hour before the challenge there was no effect.
A further study in mice was conducted to test the effect of glucose in mice by various routes of administration in the ICS assay test. The glucose was administrated by four different routes: intraperitoneal, intravenous, subcutaneous and oral.

[6] = tolerability statements for BD2K (topical, parenteral use); type: in vivo

After One Week (share of ingredient in the solution by NMR) [1]	Initially % (share of ingredient in the solution by NMR) [1]	Structure (SMILES)	reduction of BD2K1 to the starting material glucose ([1]; by adding water)	level at which di-β-glucosamine equilibrates [2]	level at which di-β-glucosamine equilibrates ([2]; listed as di-β-glucosamine)	time the equilibrium level is kept ([2]; 20% or more glucose, sealed container)	percent of total composition in the stationary equilibrium [2]	decomposition on storage [3]	stability in body fluids ([4]; body fluids)	stability at high alkaline pH ([4]; high alkaline pH)	protection against the acute pancreatitis ([5]; BD2K1 controls of the route study)	protection from death on challenge ([5]; sensitive mice, intravenous sublethal antigen challenge)	irritation ([6]; applied topically)	IgE levels in patient sera ([6]; patient sera)	toxicity ([6]; used parentally)
1%	1%	c1cnccn1 [pyrazine]	–	–	–	–	less than 1%	–	–	–	–	–	–	–	–
10%	0%	OC[C@H]1O[C@H](O)[C@H](O)[C@@H](O)[C@@H]1O [α-glucose]	–	–	–	–	–	–	–	–	–	–	–	–	–
18%	0%	OC[C@H]1O[C@@H](O)[C@H](O)[C@@H](O)[C@@H]1O [β-glucose]	–	–	–	–	–	–	–	–	–	–	–	–	–

Structure (SMILES)	After One Week (share of ingredient in the solution by NMR) [1]	Initially % (share of ingredient in the solution by NMR) [1]	reduction of BD2K1 to the starting material glucose ([1]; by adding water)	level at which di-β-glucosamine equilibrates [2]	level at which di-β-glucosamine equilibrates ([2]; listed as di-β-glucosamine)	time the equilibrium level is kept ([2]; 20% or more glucose, sealed container)	percent of total composition in the stationary equilibrium [2]	decomposition on storage [3]	stability in body fluids ([4]; body fluids)	stability at high alkaline pH ([4]; high alkaline pH)	protection against the acute pancreatitis ([5]; BD2K1 controls of the route study)	protection from death on challenge ([5]; sensitive mice, intravenous sublethal antigen challenge)	irritation ([6]; applied topically)	IgE levels in patient sera ([6]; patient sera)	toxicity ([6]; used parentally)
OC[C@H]1O[C@@H](N[C@@H]2O[C@H](CO)[C@@H](O)[C@H](O)[C@H]2O)[C@H](O)[C@@H](O)[C@@H]1O [BD2K1, di-Beta-D-glucopyranosylamine]	62%	92%	33%	80%	about 80%	at least five years	62%	does not decompose	not very stable	extremely stable	good protection	protects these sensitive mice from death	without any irritation	without elevating IgE levels	no indication of toxicity
